Results taken from patent US20190117596A1 (WAYNE STATE UNIVERSITY, priority 2016, published 2019).
Entries after “also recorded” stand apart in the source; their conditions may differ.

Experiments:
S1PR3 expression [1] = experiment: S1PR3 up-regulation in K-Ras G12V-expressing HEK293 cells (qPCR); format: cell-based; conditions: HEK293 pBabe-K-Ras G12V, anti-TGF-β 10 μg/ml, SB-431542 10 μM, SIS3 2 μM, 37° C., 24 h
Method: FIGS. 3A-3F. TGF-β/SMAD3 signaling contributes to oncogenic K-Ras mutant-stimulated S1PR3 up-regulation. (3A), P, potential SMAD3 binding sites in S1PR3 promoter. 0, transcription initiation site. (3B-3D), HEK293 cells were stably transfected with pBabe-K-Ras^G12V or pBabe control vector. Levels of total cellular K-Ras (3B), S1PRs (3C), and TGF-β (3D) were measured by qPCR analysis. (3E), HEK293 cells transfected with pBabe-K-Ras^G12V or pBabe control vector were incubated with anti-TGF-β (Cell Signaling, antibody number 3711, 10 μg/ml) or irrelevant normal rabbit IgG (10 μg/ml) at 37° C. for 24 h. Levels of S1PR3 were quantitated by qPCR. (3F), HEK293 cells transfected with pBabe-K-Ras^G12V or pBabe control vector were treated with or without SB-431542 (SB4) (inhibitor of TGF-β receptor 1, 10 μM) or SIS3 (inhibitor of SMAD3, 2 μM) at 37° C. for 24 h. Levels of S1PR3 were quantitated by qPCR. **, p<0.01, n=3, Student's t test.
(§1) Real-time PCR Analysis. Total RNA was isolated using TRIzol reagent (Invitrogen) and was reverse-transcribed with an oligo(dT) primer (Promega) by Moloney Murine Leukemia Virus (M-MLV) Reverse Transcriptase (Promega) for first-strand cDNA synthesis. For real-time PCR quantitation, 50 ng of reversely transcribed cDNAs were amplified with the ABI 7500 system (Applied Biosystems) in the presence of TaqMan DNA polymerase. […]

S1PR3 expression [2] = experiment: TGF-β-stimulated S1PR3 up-regulation in HBEC2-KT cells (qPCR); format: cell-based, human; conditions: 30 min pretreatment, SB-431542 10 μM, SIS3 2 μM, SB-203580 50 nM, BAY11-7085 10 μM, JNK inhibitor II 10 μM, TGF-β 4 h
Method: FIGS. 4A-4H. TGF-β/SMAD3 signaling axis up-regulates S1PR3. (4A), HBEC2-KT cells were treated with TGF-β (1 ng/ml) for various times. mRNA levels of S1P receptors were measured by qPCR analysis. Data are mean±S.D. of triplicate determinations. *, p<0.05, Student's t test. (4B), protein levels of S1PR3 in TGF-β (1 ng/ml)-treated HBEC2-KT cells. Lower panel, Western blot intensity was quantitated by National Institutes of Health ImageJ. Data (normalized to actin) are mean±S.D. of triplicate determinations. * and **, p<0.05 and 0.01, respectively, Student's t test. (4C), CHO cells were transduced with adenoviral particles (multiplicity of infection of 200) carrying S1PR1, S1PR2, or S1PR3 vector for 20 h as previously described (8). Extracts were blotted with antibody against S1PR3 (Cayman), S1PR2 (Cayman), or S1PR1 (E49) (8). […] Medium was quantitated for S1P, ceramide (Cer), and sphingomyelin (SPM) by LC-MS/MS (29, 46). […] S1PR3 levels were measured by qPCR, following TGF-β treatment (4 h). […] Activation of p38, JNK, and NFκB was measured by Western blotting with phospho-p38 (P-p38), phospho-JNK (P-p54^JNK and P-p46^JNK), and phospho-IκBα (p-IκBα). […]
Real-time PCR Analysis. […] For real-time PCR quantitation, 50 ng of reversely transcribed cDNAs were amplified with the ABI 7500 system (Applied Biosystems) in the presence of TaqMan DNA polymerase. […]

IL-6 expression = experiment: TGF-β-induced IL-6 expression in H1793 lung adenocarcinoma cells (qPCR); format: cell-based, human; conditions: CAY10444 10 μM
Method: FIGS. 14A-14E. S1P3 regulates the TGF-β-stimulated IL-6 expression. (14A) H1793 lung adenocarcinoma cells were pre-treated for 30 min with inhibitor of TGF-β receptor I (SB4, SB431542, 10 uM) or Smad3 (SIS3, 2 uM), followed by stimulating with TGF-β (1 ng/ml) for 4 hrs. Levels of IL-6 were analyzed by qPCR. […] The S1P-induced IL-6 expression is diminished when S1PR3 were knocked-down. (14E) HBEC2-KT normal lung epithelial cells were transduced with adenoviral particles carrying S1PR3 (Ad-S1PR3) or β-galactosidase (Ad-Ctrl, 200 m.o.i.) for overnight, followed by stimulating with or without S1P (200 nM, 4 hrs). mRNA levels of IL-6 were measured by qPCR analysis. Data are mean±SD from a representative experiment (n=3). Each experiment was repeated at least one time with similar results. Data are mean+S.D. (n=3). *, p<0.05; NS, non-statistic significance; t-test.
as §1

[3] = test system: Lewis lung carcinoma cells; experiment: Subcutaneous Lewis lung carcinoma tumor growth in C57BL/6 mice; format: in vivo, mouse; conditions: s.c. LLC cells
Method: (§2) FIGS. 7A-7E. Inhibition of S1PR3 diminishes lung carcinoma growth. (7A), C57BL/6 mice were subcutaneously inoculated with LLC cells (1×10^6 cells). 1 week later, mice were intraperitoneally administered with VPC23019 (1.5 mg/kg of body weight) or control vehicle every 3 days. (7B), S1PR1 and S1PR3 levels in Lewis lung carcinoma cells. -ve, PCR reactions were performed without cDNA. **, p<0.01, n=6, ANOVA. (7C), CHO cells were transduced with adenoviral particles carrying S1PR1, S1PR2, S1PR3, or pcDNA control vector. Cells were serum-starved for 24 h. […] ERK1/2 activation (p-ERK) was measured by Western blotting analysis. (7D), C57BL/6 mice were subcutaneously inoculated with LLC cells (1×10^6 cells). […] (7E), tumor weights were measured 24 days after implantation. **, p<0.01, n=6, ANOVA.
Tumor Growth and Lung Colonization in Mice. All animal procedures were performed according to the National Institutes of Health and institutional guidelines, and were approved by the Wayne State University Animal Use and Care Committee. For subcutaneous implantation, lung carcinoma cells were adjusted to 1×10^7 cells/ml. Mice were injected with 0.1 ml of cell suspension into the subcutaneous dorsa in the proximal midline. […] Tumor volume was measured in two dimensions using calipers, and volume was determined using the formula width 2×length×0.52 (49). […]

S1PR1 = biological target: T1, S1PR1 (Homo sapiens, UniProt P21453); experiment: S1P-stimulated ERK1/2 activation in CHO cells transduced with S1PR1 (Western blot p-ERK); format: cell-based; conditions: TY-52156 10 μM, 10 min, then S1P 200 nM
T1 construct: expressed in transfected cells; host or cells: CHO cells, adenoviral transduction
T1 sequence (P21453 whole entry, species assumed): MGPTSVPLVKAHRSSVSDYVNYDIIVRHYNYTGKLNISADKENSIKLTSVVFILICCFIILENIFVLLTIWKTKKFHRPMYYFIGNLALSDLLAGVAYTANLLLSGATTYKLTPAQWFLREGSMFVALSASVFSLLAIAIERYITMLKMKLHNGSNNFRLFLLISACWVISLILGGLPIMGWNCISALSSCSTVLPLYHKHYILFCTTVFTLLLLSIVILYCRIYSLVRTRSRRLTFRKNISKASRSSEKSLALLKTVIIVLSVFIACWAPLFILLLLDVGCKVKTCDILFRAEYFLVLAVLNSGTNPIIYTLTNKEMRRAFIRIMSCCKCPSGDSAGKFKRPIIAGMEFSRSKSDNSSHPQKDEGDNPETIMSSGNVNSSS
Method: as §2
(§3) Western Blotting Analysis. Protein extraction and Western blotting were performed as described (11). Briefly, cells were collected in ice-cold PBS using cell scrapers followed by centrifugation (500×g, 5 min). […] After centrifugation at 15,000×g for 20 min, supernatant was collected and protein concentration was measured using a bicinchoninic acid protein assay kit with BSA as standard. […]

S1PR2 = biological target: T2, S1PR2 (Homo sapiens, UniProt O95136); experiment: S1P-stimulated ERK1/2 activation in CHO cells transduced with S1PR2 (Western blot p-ERK); format: cell-based; conditions: TY-52156 10 μM, 10 min, then S1P 200 nM
T2 construct: expressed in transfected cells; host or cells: CHO cells, adenoviral transduction
T2 sequence (O95136 whole entry, species assumed): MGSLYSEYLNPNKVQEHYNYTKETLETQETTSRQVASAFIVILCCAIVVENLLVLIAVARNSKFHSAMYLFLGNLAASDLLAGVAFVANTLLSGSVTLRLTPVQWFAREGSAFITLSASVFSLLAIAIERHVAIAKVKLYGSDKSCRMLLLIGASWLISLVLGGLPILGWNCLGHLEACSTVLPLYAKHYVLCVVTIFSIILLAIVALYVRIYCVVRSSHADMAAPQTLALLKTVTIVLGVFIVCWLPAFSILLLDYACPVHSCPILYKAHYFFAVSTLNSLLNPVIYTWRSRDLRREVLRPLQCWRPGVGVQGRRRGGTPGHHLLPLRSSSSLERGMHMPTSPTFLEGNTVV
Method: as §2, §3

lung adenocarcinoma = experiment: Lung adenocarcinoma in LSL-KRas G12D mouse model (Ad-Cre); format: in vivo; conditions: Ad-Cre injected mice; 10 mg/kg i.p. every two days; lungs analyzed 2 months later
Method: FIGS. 8A-AD. […] Mice were injected with or without Ad-Cre. Lungs were analyzed for adenocarcinoma 2 months later. (8A) LSL-KRas^G12D injected with Ad-Cre. (8B) LSL-KRas^G12D injected with Ad-Cre. […] (8C) LSL-KRas^G12D mice injected with Ad-Ctrl. (8D) wild-type C57BL/6 mice injected with Ad-Cre. Arrows, lung adenocarcinomas. Scale bar=[…].

[4] = test system: human lung adenocarcinoma cells exhibiting K-Ras G12D mutation; experiment: Proliferation and colony formation of cultured lung adenocarcinoma cells; format: cell-based

In the case of COc1cc2c(cc1OC)CN(C(=O)/C=C/c1c(-c3ccccc3)n(C)c3ncccc13)CC2 [SIS3], the “S1PR3 up-regulation in K-Ras G12V-expressing cells” value (S1PR3 expression [1]) is reported as “abrogated” and the “TGF-β-stimulated S1PR3 up-regulation” value (S1PR3 expression [2]) is reported as “abrogated”.
In the case of CCCCCCCCCCCC1N[C@H](C(=O)O)CS1 (some centres unmarked) [CAY10444], the “TGF-β-induced IL-6 expression” value (IL-6 expression) is reported as “significantly diminished”.
In the case of NC(=O)c1ccc(-c2nc(-c3ccc4c(c3)OCO4)c(-c3ccccn3)[nH]2)cc1 [SB-431542], the “S1PR3 up-regulation in K-Ras G12V-expressing cells” value (S1PR3 expression [1]) is reported as “abrogated” and the “TGF-β-stimulated S1PR3 up-regulation” value (S1PR3 expression [2]) is reported as “abrogated”.
In the case of CCCCCCCCc1cccc(NC(=O)[C@H](N)COP(=O)(O)O)c1 [VPC23019], the tumor growth ([3]; 1.5 mg/kg intraperitoneally every 3 days from 1 week after inoculation, 1.5 mg/kg) is reported as “significantly inhibited; also recorded: significantly diminished”.
With CC(C)(C)C(=O)/C(=N/c1ccc(Cl)cc1)NNc1ccc(Cl)cc1 [TY-52156, 1-(4-chlorophenylhydrazono)-1-(4-chlorophenylamino)-3,3-dimethyl-2-butanone] the “S1P/S1PR1-stimulated ERK1/2 activation” value (S1PR1) was “had no effect”, the “S1P/S1PR2-stimulated ERK1/2 activation” value (S1PR2) was “had no effect” and the “growth of Lewis lung carcinoma (tumor volume, tumor weight 24 days after implantation)” value ([3]; 10 mg/kg intraperitoneally every 2 days from 1 week after inoculation, 10 mg/kg) was “significantly suppressed; also recorded: significantly diminished”. The “lung adenocarcinoma in LSL-KRas G12D mouse model” value (lung adenocarcinoma) was “significantly inhibits” and the “proliferation and colony formation” value [4] was “effective in inhibiting”.
